What is called DC50 is the midpoint of the concentration-degradation curve. In general, Dmax refers to the largest share of the target that was removed.

Data on 15 molecules can be found in patent US20250170248A1, “SMARCA DEGRADERS AND USES THEREOF” (Kymera Therapeutics, Inc., priority 2021, published 2025).

Holding throughout (assay type): cell-based
Assay [1] has as its target T1, SMARCA2 (Homo sapiens, UniProt P51531). The experiment in a line: MSD SMARCA2 degradation in A549 cell line. The settings on record: for SMARCA2 MSD A549 degradation 24 h: Average Dmax % / DC50: A549 cells; for DC50 / Dmax: 24 h; for DC50: read-out: SMARCA2 MSD A549 degradation 24 h: Average external-Abs DC50; for Dmax: A549, A549 cells. In short, it runs like this: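 A549 cells treated 24 h with compound, 3-fold series from 1000 nM. Lysates captured on MSD plates and SMARCA2 quantified with anti-SMARCA2 and SULFO-TAG secondary antibodies (electrochemiluminescence). DC50 and Dmax (% degradation at 24 h) reported as letter bins.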

The next assay concerns the target T2, SMARCA4 (Homo sapiens, UniProt P51532).
T2 construct: SMARCA2/SMARCA4 protein degradation selectivity in MV4-11 cells; endogenous in cells; host or cells: MV4-11
The experiment in a line: SMARCA4 Western blot degradation in MV4-11 cells. The settings on record: for SMARCA4 MSD MV411 degradation 24 h: average Dmax % / DC50: MV4-11 cells; for DC50 / Dmax: 24 h; for DC50: read-out: SMARCA4 MSD MV411 degradation 24 h: Mean external-Abs DC50; for Dmax: MV4-11, MV4-11 cells, read-out: SMARCA4 MSD MV411 degradation 24 h: average Dmax %. The method, boiled down: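 24 h compound exposure, MV4-11; RIPA lysates → SDS-PAGE → NC membrane; anti-SMARCA2/BRM, anti-BRG1, β-actin loading control; LI-COR fluorescence read. DC50 and Dmax at 24 h reported as letter bins.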
(Immunoblotting shows a protein as a band on a membrane.)

In assay [2] the target is T1, SMARCA2. The experiment in a line: SMARCA2 Western blot degradation in MV4-11 cells. Also noted: SMARCA2/SMARCA4 protein degradation selectivity in MV4-11 cells; endogenous in cells; host or cells: MV4-11. The settings on record: for SMARCA2 MSD MV411 degradation 24 h: average Dmax % / DC50 / Selectivity in MV411: MV4-11 cells; for SMARCA2 MSD MV411 degradation 24 h: average Dmax % / DC50 / Dmax: 24 h; for DC50: read-out: SMARCA2 MSD MV411 degradation 24 h: Mean external-Abs DC50; for Selectivity in MV411: SMARCA2/4 selectivity; for Dmax: MV4-11, MV4-11 cells, read-out: SMARCA2 MSD MV411 degradation 24 h: average Dmax %.

T2 sequence (P51532 whole entry): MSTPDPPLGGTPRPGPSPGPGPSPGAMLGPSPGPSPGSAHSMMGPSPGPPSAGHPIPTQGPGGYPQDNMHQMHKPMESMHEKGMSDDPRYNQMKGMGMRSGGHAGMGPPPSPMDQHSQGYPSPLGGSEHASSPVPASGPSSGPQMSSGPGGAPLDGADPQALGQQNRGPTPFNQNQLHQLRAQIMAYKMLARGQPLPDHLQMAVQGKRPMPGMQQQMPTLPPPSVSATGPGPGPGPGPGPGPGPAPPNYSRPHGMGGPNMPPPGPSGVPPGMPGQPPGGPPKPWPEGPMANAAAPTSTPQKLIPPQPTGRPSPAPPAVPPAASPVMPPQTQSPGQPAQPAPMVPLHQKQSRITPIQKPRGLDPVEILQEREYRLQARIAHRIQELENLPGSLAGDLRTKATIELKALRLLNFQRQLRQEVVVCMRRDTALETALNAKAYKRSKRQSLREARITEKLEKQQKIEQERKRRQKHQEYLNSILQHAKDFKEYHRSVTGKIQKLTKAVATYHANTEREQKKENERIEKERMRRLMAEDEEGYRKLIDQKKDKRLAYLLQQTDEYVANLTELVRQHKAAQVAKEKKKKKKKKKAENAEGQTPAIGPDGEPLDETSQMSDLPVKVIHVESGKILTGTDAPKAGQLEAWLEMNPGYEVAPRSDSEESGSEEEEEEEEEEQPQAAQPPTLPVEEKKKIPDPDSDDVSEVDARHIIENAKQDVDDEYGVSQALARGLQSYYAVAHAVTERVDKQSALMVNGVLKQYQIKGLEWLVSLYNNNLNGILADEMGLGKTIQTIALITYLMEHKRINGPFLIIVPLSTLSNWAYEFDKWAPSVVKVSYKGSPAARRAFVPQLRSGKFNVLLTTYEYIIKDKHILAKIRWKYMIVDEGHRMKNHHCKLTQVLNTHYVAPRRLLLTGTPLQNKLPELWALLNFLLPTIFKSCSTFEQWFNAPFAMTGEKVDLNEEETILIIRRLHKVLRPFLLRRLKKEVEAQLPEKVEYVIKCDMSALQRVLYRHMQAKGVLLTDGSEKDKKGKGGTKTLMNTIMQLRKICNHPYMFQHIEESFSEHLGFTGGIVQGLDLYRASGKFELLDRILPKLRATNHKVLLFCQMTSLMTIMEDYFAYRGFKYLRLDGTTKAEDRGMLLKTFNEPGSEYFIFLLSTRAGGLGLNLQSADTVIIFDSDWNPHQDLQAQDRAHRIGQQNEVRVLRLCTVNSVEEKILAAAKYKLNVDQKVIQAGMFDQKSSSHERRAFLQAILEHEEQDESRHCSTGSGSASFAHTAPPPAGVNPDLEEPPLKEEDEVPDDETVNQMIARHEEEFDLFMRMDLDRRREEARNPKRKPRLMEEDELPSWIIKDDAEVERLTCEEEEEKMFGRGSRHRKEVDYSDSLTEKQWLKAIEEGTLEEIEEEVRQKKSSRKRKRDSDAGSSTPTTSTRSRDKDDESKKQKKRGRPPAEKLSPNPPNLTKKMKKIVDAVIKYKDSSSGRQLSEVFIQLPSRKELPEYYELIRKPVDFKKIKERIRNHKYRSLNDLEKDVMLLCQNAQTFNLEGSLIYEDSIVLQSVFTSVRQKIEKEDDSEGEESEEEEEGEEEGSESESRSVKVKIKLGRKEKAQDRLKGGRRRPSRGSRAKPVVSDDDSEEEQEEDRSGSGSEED
T1 sequence (P51531 whole entry): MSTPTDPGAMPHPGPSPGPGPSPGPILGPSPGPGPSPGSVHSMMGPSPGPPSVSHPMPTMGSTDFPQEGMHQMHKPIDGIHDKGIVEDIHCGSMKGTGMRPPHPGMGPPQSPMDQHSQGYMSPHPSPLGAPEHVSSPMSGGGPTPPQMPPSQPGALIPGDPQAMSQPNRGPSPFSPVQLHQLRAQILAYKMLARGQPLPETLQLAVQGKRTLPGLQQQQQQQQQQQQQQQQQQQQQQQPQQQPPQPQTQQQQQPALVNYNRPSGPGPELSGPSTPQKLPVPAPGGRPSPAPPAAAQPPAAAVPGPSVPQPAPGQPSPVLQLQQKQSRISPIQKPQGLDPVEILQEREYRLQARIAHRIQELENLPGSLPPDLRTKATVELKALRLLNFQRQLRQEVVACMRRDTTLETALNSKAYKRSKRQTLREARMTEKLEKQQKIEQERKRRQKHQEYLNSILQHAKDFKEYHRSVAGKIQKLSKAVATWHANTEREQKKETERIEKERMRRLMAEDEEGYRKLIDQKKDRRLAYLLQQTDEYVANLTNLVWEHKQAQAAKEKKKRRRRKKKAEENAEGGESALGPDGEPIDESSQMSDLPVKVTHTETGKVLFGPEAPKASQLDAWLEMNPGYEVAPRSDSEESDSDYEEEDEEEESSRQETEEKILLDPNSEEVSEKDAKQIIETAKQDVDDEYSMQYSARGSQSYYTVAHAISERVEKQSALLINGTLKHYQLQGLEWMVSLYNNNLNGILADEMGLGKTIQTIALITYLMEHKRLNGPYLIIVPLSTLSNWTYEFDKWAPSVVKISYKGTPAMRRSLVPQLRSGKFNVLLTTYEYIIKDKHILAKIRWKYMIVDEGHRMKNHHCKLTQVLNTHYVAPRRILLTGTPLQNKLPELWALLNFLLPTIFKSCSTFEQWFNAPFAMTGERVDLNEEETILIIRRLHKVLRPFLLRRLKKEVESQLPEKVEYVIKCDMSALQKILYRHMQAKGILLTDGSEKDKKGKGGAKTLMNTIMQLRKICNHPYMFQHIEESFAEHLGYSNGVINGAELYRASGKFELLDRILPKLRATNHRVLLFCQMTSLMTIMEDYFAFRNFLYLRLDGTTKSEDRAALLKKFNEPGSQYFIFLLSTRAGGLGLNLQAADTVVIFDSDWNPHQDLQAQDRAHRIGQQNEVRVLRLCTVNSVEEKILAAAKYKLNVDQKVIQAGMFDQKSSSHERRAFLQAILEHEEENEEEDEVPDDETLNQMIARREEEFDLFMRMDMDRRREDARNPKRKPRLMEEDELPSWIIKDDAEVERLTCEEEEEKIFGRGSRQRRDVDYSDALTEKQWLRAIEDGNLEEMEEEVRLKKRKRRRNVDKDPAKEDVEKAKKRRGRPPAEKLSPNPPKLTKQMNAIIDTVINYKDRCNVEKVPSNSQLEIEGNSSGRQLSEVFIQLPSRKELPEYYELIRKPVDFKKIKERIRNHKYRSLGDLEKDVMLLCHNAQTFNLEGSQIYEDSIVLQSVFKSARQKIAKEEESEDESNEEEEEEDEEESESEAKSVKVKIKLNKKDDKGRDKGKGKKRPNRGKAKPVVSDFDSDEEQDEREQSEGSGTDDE

As for `C#Cc1ccc(CNC(=O)[C@@H]2C[C@@H](O)CN2C(=O)[C@@H](NC(=O)[C@H]2CCC3(CC2)C[C@H](N2CCN(c4cnc(N5CCN6c7cc(-c8ccccc8O)nnc7NC[C@H]6C5)nc4)CC2)C3)C(C)(C)CCO)cc1` (single isomer, unassigned) [I-299], on SMARCA2 [1], the “SMARCA2 MSD A549 degradation 24 h: Average Dmax %” value is “A (A (>90% degradation))” and the DC50 is below 10 nM. On SMARCA4, the “SMARCA4 MSD MV411 degradation 24 h: average Dmax %” value is given as “C (C (50-70% degradation))” and the DC50 was above 100 nM. On SMARCA2 [2], the “SMARCA2 MSD MV411 degradation 24 h: average Dmax %” value was “B (B (>70-90% degradation))”, the DC50 was 1 to 10 nM and the “Selectivity in MV411” value is recorded as “C (C (10-100 fold))”.
For `C#Cc1ccc([C@H](C)NC(=O)[C@@H]2C[C@@H](O)CN2C(=O)[C@@H](NC(=O)N2CC3(C2)CN(C2CCN(c4cnc(N5CCc6[nH]c7nnc(-c8ccccc8O)cc7c6[C@H]5C)nc4)CC2)C3)C(C)(C)C)cc1` [I-249], at SMARCA2 [1], the Dmax was above 90% and the DC50 fell in the range of 10 to 50 nM. Also, on SMARCA4, the Dmax lay within 70 to 90% and the DC50 was above 100 nM. Moreover, on SMARCA2 [2], the Dmax was above 90%, the DC50 was 10 to 100 nM and the “Selectivity in MV411” value is recorded as “C (C (10-100 fold))”.
With `C#Cc1ccc(CNC(=O)[C@@H]2C[C@@H](O)CN2C(=O)[C@@H](NC(=O)[C@H]2CCC3(CC2)C[C@H](N2CCC(c4cnc(N5CCN6c7cc(-c8ccccc8O)nnc7NC[C@H]6C5)nc4)CC2)C3)C(C)(C)C)c(F)c1` (single isomer, unassigned) [I-97], at SMARCA2 [1], the Dmax was above 90% and the DC50 fell in the range of 10 to 50 nM. On SMARCA4, the Dmax was below 50% and the DC50 was above 100 nM. For the same molecule, at SMARCA2 [2], the Dmax is 70 to 90%, the DC50 lay within 1 to 10 nM and the “Selectivity in MV411” value is listed as “A (A (>500 fold))”.
With `C#Cc1ccc(CNC(=O)[C@@H]2C[C@@H](O)CN2C(=O)[C@H](NC(=O)N2CC3(CC(N4CCC(c5cnc(N6CCc7[nH]c8nnc(-c9ccccc9O)cc8c7[C@H]6C)nc5)CC4)C3)C2)C(C)(C)CCOCC(=O)O)cc1` (single isomer, unassigned) [I-263], the Dmax on SMARCA2 [1], at SMARCA4 and at SMARCA2 [2] was below 50% each time. The DC50 at SMARCA2 [1], on SMARCA4 and at SMARCA2 [2] was above 100 nM each time. The “Selectivity in MV411” value at SMARCA2 [2] is “C (C (10-100 fold))”.
`C#Cc1ccc(CNC(=O)[C@@H]2C[C@@H](O)CN2C(=O)[C@@H](NC(=O)[C@H]2CCC3(CC2)C[C@H](N2CCC(c4cnc(N5CCN6c7cc(-c8ccccc8O)nnc7NC[C@H]6C5)nc4)CC2)C3)C(C)(C)C)c(OCCCOC)c1` (single isomer, unassigned) [I-130]: on SMARCA2 [1], the Dmax is above 90% and the DC50 is below 10 nM. Moreover, at SMARCA4, the Dmax was above 90% and the DC50 lay within 10 to 100 nM. Besides, at SMARCA2 [2], the Dmax is above 90%, the DC50 was in the range of 1 to 10 nM and the “Selectivity in MV411” value is reported as “D (D (<10 fold))”.
For the molecule `C#Cc1ccc(CNC(=O)[C@@H]2C[C@@H](O)CN2C(=O)[C@H](NC(=O)N2CC3(CC(N4CCC(c5cnc(N6CCc7[nH]c8nnc(-c9ccccc9O)cc8c7[C@H]6C)nc5)CC4)C3)C2)C(C)(C)CCN2CCNCC2)cc1` [I-339], on SMARCA2 [1], the Dmax is below 50% and the DC50 is above 100 nM. Besides, on SMARCA4, the Dmax is below 50% and the DC50 is above 100 nM. In addition, at SMARCA2 [2], the Dmax was below 50%, the DC50 was above 100 nM and the “Selectivity in MV411” value was “C (C (10-100 fold))”.
As for `C#Cc1ccc(CNC(=O)[C@@H]2C[C@@H](O)CN2C(=O)[C@H](NC(=O)[C@H]2CCC3(CC2)C[C@H](N2CCN(c4cnc(N5CCN6c7cc(-c8ccccc8O)nnc7NC[C@H]6C5)nc4)CC2)C3)C(C)(C)CCO)c(Cl)c1` (single isomer, unassigned) [I-306], at SMARCA2 [1], the Dmax was below 50% and the DC50 is above 100 nM. In addition, on SMARCA4, the maximal degradation (Dmax) was below 50% and the DC50 was above 100 nM. Also, at SMARCA2 [2], the Dmax was below 50%, the DC50 is above 100 nM and the “Selectivity in MV411” value is reported as “D (D (<10 fold))”.
In the case of `C#Cc1ccc(CNC(=O)[C@@H]2C[C@@H](O)CN2C(=O)[C@@H](NC(=O)[C@H]2CC[C@@H](CN3CCC(c4cnc(N5CCN6c7cc(-c8ccccc8O)nnc7NC[C@H]6C5)nc4)CC3)CC2)C(C)(C)C)cc1` [I-293], the values for the Dmax at SMARCA2 [1], at SMARCA4 and on SMARCA2 [2] were above 90%, 50 to 70% and 70 to 90%, respectively. The half-maximal degradation concentration (DC50) at SMARCA2 [1] is 10 to 50 nM; at SMARCA4, above 100 nM; at SMARCA2 [2] it was 1 to 10 nM. Moreover, the “Selectivity in MV411” value on SMARCA2 [2] is “B (B (>100-500 fold))”.
`C#Cc1ccc(CNC(=O)[C@@H]2C[C@@H](O)CN2C(=O)[C@@H](NC(=O)C2CC3(C2)CC(N2CCC(N4CCC(N5CCN6c7cc(-c8ccccc8O)nnc7NC[C@H]6C5)CC4)CC2)C3)C(C)(C)C)cc1` (stereo partly drawn) [I-137]: the figures for the Dmax on SMARCA2 [1], at SMARCA4 and on SMARCA2 [2] were above 90%, below 50% and 70 to 90%, respectively. Moreover, the DC50 is 50 to 100 nM on SMARCA2 [1], above 100 nM at SMARCA4 and 1 to 10 nM at SMARCA2 [2]. Besides, the “Selectivity in MV411” value at SMARCA2 [2] is “A (A (>500 fold))”.
Consider `C#Cc1ccc(CNC(=O)[C@@H]2C[C@@H](O)CN2C(=O)[C@@H](NC(=O)[C@H]2CC3(C2)C[C@H](N2CCC(N4CCC(N5CCN6c7cc(-c8ccccc8O)nnc7NC[C@H]6C5)CC4)CC2)C3)C(C)(C)C)c(OC)c1` (single isomer, unassigned) [I-232], for which, at SMARCA2 [1], the “SMARCA2 MSD A549 degradation 24 h: Average Dmax %” value is “A (A (>90% degradation))” and the half-maximal degradation concentration (DC50) lay within 10 to 50 nM. Moreover, on SMARCA4, the “SMARCA4 MSD MV411 degradation 24 h: average Dmax %” value is “B (B (>70-90% degradation))” and the DC50 is 10 to 100 nM. In addition, at SMARCA2 [2], the “SMARCA2 MSD MV411 degradation 24 h: average Dmax %” value is listed as “A (A (>90% degradation))”, the DC50 was in the range of 1 to 10 nM and the “Selectivity in MV411” value is on record as “C (C (10-100 fold))”.
Regarding `Cc1ncsc1-c1ccc(CNC(=O)[C@@H]2C[C@@H](O)CN2C(=O)[C@@H](NC(=O)[C@H]2CCC3(CC2)C[C@H](N2CCC(c4ccc(N5CCN6c7cc(-c8ccccc8O)nnc7NC[C@H]6C5)nc4)CC2)C3)C(C)(C)C)cc1` (stereo partly drawn) [I-148], on SMARCA2 [1], the Dmax is above 90% and the 50% degradation concentration (DC50) was in the range of 50 to 100 nM. In addition, on SMARCA4, the Dmax is below 50% and the DC50 is above 100 nM. In addition, on SMARCA2 [2], the Dmax was in the range of 70 to 90%, the DC50 lay in the range of 10 to 100 nM and the “Selectivity in MV411” value is listed as “B (B (>100-500 fold))”.
Consider `C#Cc1ccc(CNC(=O)[C@@H]2C[C@@H](O)CN2C(=O)[C@@H](NC(=O)C2CCN(CC3CCC(N4CCC(N5CCc6[nH]c7nnc(-c8ccccc8O)cc7c6[C@H]5C)CC4)CC3)CC2)C(C)(C)C)cc1` (stereo partly drawn) [I-197], for which, at SMARCA2 [1], the Dmax is 70 to 90% and the DC50 is above 100 nM. Further, at SMARCA4, the Dmax was below 50% and the DC50 is above 100 nM. On SMARCA2 [2], the Dmax is below 50%, the DC50 is above 100 nM and the “Selectivity in MV411” value is “C (C (10-100 fold))”.
With `C#Cc1ccc(CNC(=O)[C@@H]2C[C@@H](O)CN2C(=O)[C@@H](NC(=O)N2CC3(CC(N4CCC(N5CCC(N6CCc7[nH]c8nnc(-c9ccccc9O)cc8c7[C@H]6C)C5)CC4)C3)C2)C(C)(C)C)cc1` (mixture of isomers) [I-188], at SMARCA2 [1], the Dmax is above 90% and the DC50 is above 100 nM. In addition, on SMARCA4, the Dmax is below 50% and the DC50 was above 100 nM. On SMARCA2 [2], the Dmax was 50 to 70%, the DC50 is 10 to 100 nM and the “Selectivity in MV411” value is reported as “C (C (10-100 fold))”.
In the case of `Cc1ncsc1-c1ccc(CNC(=O)[C@@H]2C[C@@H](O)CN2C(=O)C(c2cc(N3CCC4(CC3)CC(N3CCC(c5cnc(N6CCc7[nH]c8nnc(-c9ccccc9O)cc8c7[C@H]6C)nc5)CC3)C4)no2)C(C)C)cc1` (stereo partly drawn) [I-13], at SMARCA2 [1], the Dmax was above 90% and the DC50 lay within 10 to 50 nM. Also, at SMARCA4, the Dmax was above 90% and the DC50 lay in the range of 10 to 100 nM. Further, on SMARCA2 [2], the Dmax was above 90%, the DC50 was in the range of 1 to 10 nM and the “Selectivity in MV411” value is given as “C (C (10-100 fold))”.
With `Cc1ncsc1-c1ccc(CNC(=O)[C@@H]2C[C@@H](O)CN2C(=O)[C@@H](NC(=O)[C@H]2CC3(CC[C@H](N4CCN(c5ccnc(N6CCc7[nH]c8nnc(-c9ccccc9O)cc8c7[C@H]6C)n5)CC4)CC3)C2)C(C)(C)C)cc1` (stereo partly drawn) [I-80], the Dmax at SMARCA2 [1], on SMARCA4 and on SMARCA2 [2] was above 90% in each case. The values for the DC50 on SMARCA2 [1], on SMARCA4 and on SMARCA2 [2] were below 10 nM, 1 to 10 nM and below 1 nM, respectively. For the same molecule, the “Selectivity in MV411” value on SMARCA2 [2] is recorded as “C (C (10-100 fold))”.
